inhibition, IC50 and Ki data for 19 molecules are collected here from ChEMBL document CHEMBL1156844, “Inhibition of neuraminidase activity by polyphenol compounds isolated from the roots of Glycyrrhiza uralensis” (Bioorg Med Chem Lett, 2010).

Assay [1] relates to Influenza A virus (A/Brevig Mission/1/1918(H1N1)). The experiment in a line: Inhibition of Spanish flu (A/Bervig_Mission/1/18) neuraminidase at 200 uM.
Assay [2] in a line: Inhibition of Spanish flu (A/Bervig_Mission/1/18) neuraminidase. Further details: species or system Influenza A virus (A/Brevig Mission/1/1918(H1N1)).
Assay [3] in a line: Inhibition of Spanish flu (A/Bervig_Mission/1/18) neuraminidase by noncompetitive inhibition assay. Further details: species or system Influenza A virus (A/Brevig Mission/1/1918(H1N1)).

What is called inhibition is the share of the control response that was lost under treatment. Lower therefore signals little suppression. Regarding `COc1cc2oc(=O)c(-c3ccc(O)cc3O)cc2c(OC)c1CC=C(C)C`, the inhibition in assay [1] was found to be 10%.

In turn, `COc1ccc(-c2coc3cc(O[C@@H]4O[C@H](CO)[C@@H](O)[C@H](O)[C@H]4O)ccc3c2=O)cc1` registered an inhibition in assay [1] of 30%.

A word on the IC50: it is the concentration that gives 50% inhibition. Low values mean inhibition by little substance, high ones a need for much substance. Broadly, the Ki is the equilibrium dissociation constant of an inhibitor or competing ligand from its target. A lower Ki goes with a stronger hold on the target. Molecule `COc1cc(O)c2c(=O)c(OC)c(-c3ccc(O)cc3)oc2c1` [KUMATAKENIN] had a half-inhibitory concentration (IC50) in assay [2] of 36.4 µM. For the same molecule, the Ki in assay [3] was 90.3 µM.

In turn, `COc1cc2c(c(OC)c1CC=C(C)C)C[C@H](c1ccc(O)cc1O)CO2` came in with an inhibition in assay [1] of 20%.

In assay [1], `COc1c2c(cc3oc(=O)c(-c4ccc(O)cc4O)cc13)OC(C)(CO)CC2` (stereo unspecified) returned an inhibition of 10%.

For the molecule `O=C1C[C@@H](c2ccc(O[C@@H]3O[C@H](CO)[C@@H](O)[C@H](O)[C@H]3O)cc2)Oc2cc(O)ccc21` [LIQUIRITIN], 82.3 µM corresponded to half-maximal inhibition in assay [2] (IC50). For the same molecule, the inhibitory constant (Ki) in assay [3] was found to be 124 µM.

In turn, `COc1c(CC=C(C)C)c(O)cc2c1C[C@H](c1ccc(O)cc1O)CO2` displayed an inhibition in assay [1] of 20%.

In assay [1], `COc1cc2c(c(OC)c1CC=C(C)C)C(=O)[C@H](c1ccc(O)c(CC=C(C)C)c1O)CO2` yielded an inhibition of 30%.

In turn, `O=C(/C=C/c1ccc(O[C@@H]2O[C@H](CO)[C@@H](O)[C@H](O)[C@H]2O)cc1)c1ccc(O)cc1O` [ISOLIQUIRITIN] gave an IC50 in assay [2] of 124 µM. Moreover, the inhibitory constant (Ki) in assay [3] was 94 µM.

In turn, `COc1c(CC=C(C)C)c(O)cc2oc(-c3ccc(O)cc3O)cc12` [LICOCOUMARONE] showed a 50% inhibitory concentration (IC50) in assay [2] of 27.8 µM. The affinity in assay [3], expressed as Ki, was 12.1 µM.

As for `O=C(/C=C/c1ccc(O[C@@H]2O[C@H](CO)[C@@H](O)[C@H](O)[C@H]2O[C@H]2OC[C@@](O)(CO)[C@@H]2O)cc1)c1ccc(O)cc1O` [ISOLIQUIRITIN APIOSIDE], the half-inhibitory concentration (IC50) in assay [2] amounted to 12.9 µM. In addition, the Ki in assay [3] worked out at 14.2 µM.

As for `CC(C)=CCc1c(O)cc2oc(-c3ccc(O)cc3)c(O)c(=O)c2c1O` [LICOFLAVONOL], the concentration for half-maximal inhibition (IC50) in assay [2] was found to be 20.6 µM. Also, in assay [3], the Ki is 33 µM.

Regarding `COc1c(CC=C(C)C)c(O)cc2oc(=O)c3c4ccc(O)cc4oc3c12` [GLYCYROL], in assay [2], the IC50 was determined as 3.1 µM. This molecule displayed a Ki in assay [3] of 2.9 µM.

Consider `O=C1C[C@@H](c2ccc(O)cc2)Oc2cc(O)ccc21` [LIQUIRTIGENIN], for which, in assay [2], 46.8 µM corresponded to half-maximal inhibition (IC50). The inhibitory constant (Ki) in assay [3] worked out at 33.1 µM.

`CCOC(=O)C1=C[C@@H](OC(CC)CC)[C@H](NC(C)=O)[C@@H](N)C1` [OSELTAMIVIR] yielded an IC50 in assay [2] of 1.59 µM.

Take `O=C1C[C@@H](c2ccc(O[C@@H]3O[C@H](CO)[C@@H](O)[C@H](O)[C@H]3O[C@H]3OC[C@@](O)(CO)[C@@H]3O)cc2)Oc2cc(O)ccc21` [LIQUIRITIN APIOSIDE]: the IC50 in assay [2] is 18.2 µM. The Ki in assay [3] amounted to 20.4 µM.

In assay [2], `COc1c2c(cc3oc(=O)c4c5ccc(O)cc5oc4c13)OC(C)(C)CC2` [ISOGLYCYROL] displayed an IC50 of 92.4 µM. For the same molecule, the Ki in assay [3] was found to be 77.5 µM.

With `O=C(/C=C/c1ccc(O)cc1)c1ccc(O)cc1O` [ISOLIQUIRITIGENIN], the IC50 in assay [2] was determined as 9 µM. Also, the Ki in assay [3] was 9.9 µM.

For `COc1cc(O)ccc1C(=O)/C=C/c1ccc(O)cc1`, the half-maximal inhibitory concentration (IC50) in assay [2] turned out to be 24.3 µM. Besides, in assay [3], the inhibitory constant (Ki) turned out to be 20.1 µM.
